Laboratory results taken from patent US6232305A, “Substituted amino bicyclic-β-lactam penam and cepham derivatives as cysteine protease inhibitors” (Naeja Pharmaceutical Inc., priority 1998, dated 2001).

Legend:
[1] = biological target: Cathepsin L (Rattus norvegicus, UniProt P07154); test: In vitro inhibition of cathepsin L; assay type: biochemical; conditions: r rat cathepsin L; substrate N-CBZ-Phe-Arg-AMC; pH 5.0; 10 min incubation at room temperature
Description: (§1) TEST EXAMPLE 2 In Vitro Assay Procedure for Cathepsin L […] After 10 min of incubation at room temperature, a 20 μl of 1 mM substrate (N-CBZ-Phe-Arg-AMC, dissolved in DMSO) was added to initiate reaction. Reading is followed up for 10 min at the fluoroscan reader (excitation at 380 nm emission at 460 nm).

[2] = biological target: Cathepsin B (Rattus norvegicus, UniProt P00787); test: In vitro inhibition of cathepsin B; assay type: biochemical; conditions: r rat cathepsin B; substrate N-CBZ-Phe-Arg-AMC; pH 5.1; 10 min incubation at room temperature
Description: as §1, with “EXAMPLE 1” for “EXAMPLE 2”, “Cathepsin B The compounds of formula I were tested for inhibition of cathepsin B using the known method (A. J. Barret et al., Biochem. J. 1982, 201, 189-198).” for “Cathepsin L”, “of 5” for “of 1”

Chain of Cathepsin B (P00787 80-339): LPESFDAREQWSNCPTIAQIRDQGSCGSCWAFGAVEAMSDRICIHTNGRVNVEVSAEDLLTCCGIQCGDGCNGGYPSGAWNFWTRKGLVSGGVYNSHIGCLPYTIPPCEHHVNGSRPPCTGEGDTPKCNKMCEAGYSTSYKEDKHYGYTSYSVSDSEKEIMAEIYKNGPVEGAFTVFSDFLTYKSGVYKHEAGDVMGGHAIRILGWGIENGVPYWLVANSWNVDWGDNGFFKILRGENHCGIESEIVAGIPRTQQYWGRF
Chain of Cathepsin L (P07154 114-334): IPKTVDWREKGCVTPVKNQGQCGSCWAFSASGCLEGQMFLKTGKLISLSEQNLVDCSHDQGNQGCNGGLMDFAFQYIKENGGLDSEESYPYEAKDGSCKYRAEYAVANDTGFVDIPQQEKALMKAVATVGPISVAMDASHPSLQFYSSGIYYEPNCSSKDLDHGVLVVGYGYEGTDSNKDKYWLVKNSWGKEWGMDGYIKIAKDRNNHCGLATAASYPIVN

| Structure (SMILES) | IC50 [1] | IC50 [2] |
| --- | --- | --- |
| O=C(CCc1ccccc1)N[C@@H](CC1CCCCC1)C(=O)N[C@@H]1C(=O)N2CCS(=O)(=O)[C@@H]12 [Example 5, (5S,6R)-6-{2S-2-(3-phenylpropionoyl)amino-2-cyclohexylmethyl-acetamido}-4,4-dioxo-4-thia-1-azabicyclo [3,2,0] heptan-7-one] | 0.7 nM | 0.43 µM |
| O=C(N[C@@H](Cc1ccccc1)C(=O)N[C@@H]1C(=O)N2CCCS[C@@H]12)OCc1ccccc1 [Example 14, (6S,7R)-7-(2S-2-benzyloxycarbonylamino-2-phenylmethyl-acetamido)-5-thia-1-azabicyclo [4,2,0] octan-8-one] | > 50000 nM | > 50 µM |
| O=C(N[C@@H](Cc1ccccc1)C(=O)N[C@@H]1C(=O)N2CC[S+]([O-])[C@@H]12)OCc1ccccc1 (stereo partly drawn) [Example 21, (5S,6R)-6-{2S-2-benzyloxycarbonylamino-2-phenylmethyl-acetamido}-4-oxo-4-thia-1-azabicyclo [3,2,0] heptan-7-one] | 68 nM | 16.4 µM |
| O=C(N[C@@H](Cc1ccccc1)C(=O)N[C@@H]1C(=O)N2CCS[C@@H]12)OCc1ccccc1 [Example 1, (5S,6R)-6-(2S-2-benzyloxycarbonylamino-2-phenylmethyl-acetamido)-4-thia-1-azabicyclo [3,2,0] heptan-7-one] | 6680 nM | > 50 µM |
| O=C(CCc1ccccc1)N[C@@H](Cc1cccc(F)c1)C(=O)N[C@@H]1C(=O)N2CCS(=O)(=O)[C@@H]12 [Example 11, (5S,6R)-6-{2S-2-(3-phenylpropionoyl)amino-2-(3-fluorophenyl)methyl-acetamido}-4,4-dioxo-4-thia-1-azabicyclo [3,2,0] heptan-7-one] | 3.3 nM | 1 µM |
| O=C(N[C@@H](Cc1cccnc1)C(=O)N[C@@H]1C(=O)N2CCS(=O)(=O)[C@@H]12)OCc1ccccc1 [Example 13, (5S,6R)-6-{2S-2-benzyloxycarbonylamino-2-(3-pyridyl)methyl-acetamido}-4,4-dioxo-4-thia-1-azabicyclo [3,2,0] heptan-7-one] | 1.7 nM | 1.3 µM |
| O=C(N[C@H](Cc1ccccc1)C(=O)N[C@@H]1C(=O)N2CCS(=O)(=O)[C@@H]12)OCc1ccccc1 [Example 20, (5S,6R)-6{2R-2-benzyloxycarbonylamino-2-phenylmethyl-acetamido}-4,4-dioxo4-thia-1-azabicyclo[3,2,0] heptan-7-one] | 44 nM | > 50 µM |
| O=C(CCc1ccccc1)N[C@@H](Cc1ccc2ccccc2c1)C(=O)N[C@@H]1C(=O)N2CCS[C@@H]12 [Example 6, (5S,6R)-6-{2S-2-(3-phenylpropionoyl)amino-2-(2-naphthyl)methyl-acetamido}-4-thia-1-azabicyclo [3,2,0] heptan-7-one] | 430 nM | 10.5 µM |
| O=C(N[C@@H](Cc1ccccc1)C(=O)N[C@@H]1C(=O)N2CCCS(=O)(=O)[C@H]12)OCc1ccccc1 [Example 16, (6R,7R)-7-(2S-2-benzyloxycarbonylamino-2-phenylmethyl-acetamido)-5,5-dioxo-5-thia-1-azabicyclo [4,2,0] octan-8-one] |  | > 50 µM |
| O=C(N[C@@H](Cc1ccccc1)C(=O)N[C@@H]1C(=O)N2CC(O)CS[C@@H]12)OCc1ccccc1 (stereo partly drawn) [Example 17, (6S,7R)-7-(2S-2-benzyloxycarbonylamino-2-phenylmethyl-acetamido)-3-hydroxy-5-thia-1-azabicyclo [4,2,0] octan-8-one] | 2190 nM | > 50 µM |
| O=C(N[C@@H](Cc1ccccc1)C(=O)N[C@@H]1C(=O)N2CCS(=O)(=O)[C@@H]12)OCc1ccccc1 [Example 2, (5S,6R)-6-(2S-2-benzyloxycarbonylamino-2-phenylmethyl-acetamido)-4,4-dioxo-4-thia-1-azabicyclo [3,2,0] heptan-7-one] | 1.4 nM | 0.35 µM |
| O=C(N[C@@H](Cc1ccccc1)C(=O)N[C@@H]1C(=O)N2CCCS(=O)(=O)[C@@H]12)OCc1ccccc1 [Example 15, (6S,7R)-7-(2S-2-benzyloxycarbonylamino-2-phenylmethyl-acetamido)-5,5-dioxo-5-thia-1-azabicyclo [4,2,0] octan-8-one] | 2120 nM | > 50 µM |
| COC(=O)[C@@H]1N2C(=O)[C@@H](NC(=O)[C@H](Cc3ccccc3)NC(=O)OCc3ccccc3)[C@H]2S(=O)(=O)C1(C)C [Example 18, Methyl (2S,5R,6R)-6-(2S-2-benzyloxycarbonylamino-2-phenylmethyl-acetamido)-3,3-dimethyl-7-oxo-4,4-dioxo4-thia-1-azabicyclo[3,2,0]heptane-2-carboxylate] | 1740 nM | 28.2 µM |
| O=C(CCc1ccccc1)N[C@@H](CC1CCCCC1)C(=O)N[C@@H]1C(=O)N2CCS[C@@H]12 [Example 4, (5S,6R)-6-{2S-2-(3-phenylpropionoyl)amino-2-cyclohexylmethyl-acetamido}-4-thia-1-azabicyclo [3,2,0] heptan-7-one] | > 50000 nM | > 50 µM |
| O=C(CCc1ccccc1)N[C@@H](Cc1ccc2ccccc2c1)C(=O)N[C@@H]1C(=O)N2CCS(=O)(=O)[C@@H]12 [Example 7, (5S,6R)-6-{2S-2-(3-phenylpropionoyl)amino-2-(2-naphthyl)methyl-acetamido}-4,4-dioxo-4-thia-1-azabicyclo [3,2,0] heptan-7-one] | 3 nM | 0.39 µM |
| O=C(CCc1ccccc1)N[C@@H](Cc1cccc(F)c1)C(=O)N[C@@H]1C(=O)N2CCS[C@@H]12 [Example 10, (5S,6R)-6-{2S-2-(3-phenylpropionoyl)amino-2-(3-fluorophenyl)methyl-acetamido}4-4-thia-1-azabicyclo [3,2,0] heptan-7-one] | 11300 nM | > 50 µM |
| O=C(N[C@@H](Cc1ccccc1)C(=O)N[C@@H]1C(=O)N2CCS(=O)(=O)[C@H]12)OCc1ccccc1 [Example 3, (5R,6R)-6-(2S-2-benzyloxycarbonylamino-2-phenylmethyl-acetamido)-4,4-dioxo-4-thia-1-azabicyclo [3,2,0] heptan-7-one] | 9.6 nM | 6.01 µM |
| O=C(CCc1ccccc1)N[C@@H](Cc1cccs1)C(=O)N[C@@H]1C(=O)N2CCS[C@@H]12 [Example 8, (5S,6R)-6-{2S-2-(3-phenylpropionoyl)amino-2-(2-thienyl)methyl-acetamido}-4-thia-1-azabicyclo [3,2,0] heptan-7-one] | 11600 nM | > 50 µM |
| CC1(C)[C@H](C(=O)O)N2C(=O)[C@@H](NC(=O)[C@H](Cc3ccccc3)NC(=O)CCc3ccccc3)[C@H]2S1(=O)=O [Example 19, (2S,5R,6R)-6-{2S-2-(3-phenylpropionoyl)amino-2-phenylmethyl-acetamido}-3,3-dimethyl-7-oxo-4,4-dioxo-4-thia-1-azabicyclo [3,2,0] heptane-2-carboxylic acid] | 6770 nM | > 50 µM |
| O=C(N[C@@H](Cc1cccnc1)C(=O)N[C@@H]1C(=O)N2CCS[C@@H]12)OCc1ccccc1 [Example 12, (5S,6R)-6-{2S-2-benzyloxycarbonylamino-2-(3-pyridyl)methyl-acetamido}-4-thia-1-azabicyclo [3,2,0] heptan-7-one] | 11700 nM | > 50 µM |
| O=C(CCc1ccccc1)N[C@@H](Cc1cccs1)C(=O)N[C@@H]1C(=O)N2CCS(=O)(=O)[C@@H]12 [Example 9, (5S,6R)-6-{2S-2-(3-phenylpropionoyl)amino-2-(2-thienyl)methyl-acetamido}-4,4-dioxo-4-thia-1-azabicyclo [3,2,0] heptan-7-one] | 3 nM | 0.43 µM |
